# Values of other authors, collected in US4196122A, “Analgesic polypeptide” (American Home Products Corporation, priority 1977, dated 1980).
# Columns and labels:
# [1] = test system: opiate receptor; settings: brain homogenates
# [2] = test system: rats; settings: injection in the brain ventricle in rats; fully reversible by naloxone
substance,measurement,setting,value
H-Tyr-Gly-Gly-Phe-Met-OH [methionine-enkephalin],inhibition of stereospecific receptor binding of 3H-naloxone,[1],inhibit the stereospecific receptor binding
same,analgesia,[2],induce a profound analgesia
H-Tyr-Gly-Gly-Phe-Leu-OH [leucine-enkephalin],inhibition of stereospecific receptor binding of 3H-naloxone,[1],inhibit the stereospecific receptor binding
same,analgesia,[2],induce a profound analgesia
